According to patent EP4806900A2, “RAS INHIBITORS” (Revolution Medicines, Inc., priority 2019, dated 2021):
Several values for one entry are separate records, joined by “and”; a condition that tells them apart may be missing. Equal values may be shown once. Read-outs that look alike come from different tables or passages of the source. Each block holds one compound with its values, some of them ahead of it.

Experiments:
[1] = test system: NCI-H358 (K-Ras G12C); assay: CellTiter-Glo cell viability assay, NCI-H358; type: cell-based, human
Summary of the method: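 Compounds dispensed directly onto plated NCI-H358 cells; plates equilibrated to room temperature on day 5 before luminescence read-out. Signal normalized to mean DMSO control (%) and fitted by four-parameter logistic.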

[2] = read-out: H358 Cell Viability assay data (K-Ras G12C, IC50), Table 5
[3] = Homo sapiens, NCI-H358, Table 5, read-out: H358 Cell Viability assay data (K-Ras G12C, IC50)
[4] = Homo sapiens, NCI-H358, read-out: H358 Cell Viability assay data (K-Ras G12C, IC50, uM), Table 5
[5] = Table 5, read-out: H358 Cell Viability assay data (K-Ras G12C, IC50)

Compound: CC(C)[Si](Oc1cc2cc(c1)-c1ccc3[nH]c(I)c(c3c1)CC(C)(C)COC(=O)[C@@H]1CCCN(N1)C(=O)[C@@H](NC(=O)OC(C)(C)C)C2)(C(C)C)C(C)C
ring closure, yield of all isomers (from CC(C)[Si](Oc1cc(C[C@H](NC(=O)OC(C)(C)C)C(=O)N2CCC[C@@H](C(=O)O)N2)cc(-c2ccc3[nH]c(I)c(CC(C)(C)CO)c3c2)c1)(C(C)C)C(C)C, ester bond, EDCI/HOBt/DIPEA, DCM, 22.8 mM, 25.0 °C, 16.0 h): 50%

Compound: CC1(C)COC(=O)[C@@H]2CCCN(N2)C(=O)[C@@H](NC(=O)OC(C)(C)C)Cc2cccc(c2)-c2ccc3[nH]c(I)c(c3c2)C1
ring closure, yield of all isomers (from CC(C)(CO)Cc1c(I)[nH]c2ccc(-c3cccc(C[C@H](NC(=O)OC(C)(C)C)C(=O)N4CCC[C@@H](C(=O)O)N4)c3)cc12, ester bond, EDCI/HOBt/DIPEA, DCM, 12.8 mM, 0.0 °C, 16.0 h): 79.8%

Compound: CCn1c(-c2ccccc2COC)c2c3cc(ccc31)-c1cc(cc([N+](=O)[O-])c1)C[C@H](NC(=O)OC(C)(C)C)C(=O)N1CCC[C@H](N1)C(=O)OCC(C)(C)C2
ring closure, yield of all isomers (from CCn1c(-c2ccccc2COC)c(CC(C)(C)CO)c2cc(-c3cc(C[C@H](NC(=O)OC(C)(C)C)C(=O)N4CCC[C@@H](C(=O)O)N4)cc([N+](=O)[O-])c3)ccc21, ester bond, EDCI/HOBt/DIPEA, DCM, 6.4 mM, 25.0 °C, 16.0 h): 73%

Compound: CCn1c(-c2cccnc2[C@H](C)OC)c2c3cc(ccc31)-c1cc(cc(C(F)F)c1)C[C@H](NC(=O)OC(C)(C)C)C(=O)N1CCC[C@H](N1)C(=O)OCC(C)(C)C2
ring closure, yield of all isomers (from CCn1c(-c2cccnc2[C@H](C)OC)c(CC(C)(C)CO)c2cc(-c3cc(C[C@H](NC(=O)OC(C)(C)C)C(=O)N4CCC[C@@H](C(=O)O)N4)cc(C(F)F)c3)ccc21, ester bond, EDCI/HOBt/DIPEA, DCM, 16.0 h): 51%

Compound: CCn1c(-c2cccnc2[C@H](C)OC)c2c3cc(ccc31)-c1cc(cc(O[Si](C(C)C)(C(C)C)C(C)C)c1)C[C@H](NC(=O)OC(C)(C)C)C(=O)N1CCC[C@H](N1)C(=O)OCC(C)(C)C2
ring closure, yield of all isomers (from CCn1c(-c2cccnc2[C@H](C)OC)c(CC(C)(C)CO)c2cc(-c3cc(C[C@H](NC(=O)OC(C)(C)C)C(=O)N4CCC[C@@H](C(=O)O)N4)cc(O[Si](C(C)C)(C(C)C)C(C)C)c3)ccc21, ester bond, EDCI/HOBt/DIPEA, DCM, 15.3 mM, 25.0 °C, 16.0 h): 42%

Compound: CCn1c(-c2cccnc2[C@H](C)OC)c2c3cc(ccc31)-c1nc(co1)C[C@H](NC(=O)OC(C)(C)C)C(=O)N1CCC[C@H](N1)C(=O)OCC(C)(C)C2
ring closure, yield of all isomers (from CCn1c(-c2cccnc2[C@H](C)OC)c(CC(C)(C)COC(=O)[C@@H]2CCCN(C(=O)[C@H](Cc3coc(Br)n3)NC(=O)OC(C)(C)C)N2)c2cc(B3OC(C)(C)C(C)(C)O3)ccc21, cc_pd bond, XPhos Pd G3, dioxane, […], 70.0 °C, 4.0 h): 56%

Compound: CCn1c(-c2cccnc2[C@H](C)OC)c2c3cc(ccc31)-c1nc(nn1C)C[C@H](NC(=O)OC(C)(C)C)C(=O)N1CCC[C@H](N1)C(=O)OCC(C)(C)C2
ring closure, yield of all isomers (from CCn1c(-c2cccnc2[C@H](C)OC)c(CC(C)(C)COC(=O)[C@@H]2CCCN(C(=O)[C@H](Cc3nc(Br)n(C)n3)NC(=O)OC(C)(C)C)N2)c2cc(B3OC(C)(C)C(C)(C)O3)ccc21, cc_pd bond, XPhos Pd G3, dioxane, 71.7 mM, 75.0 °C, 3.0 h): 56.8%

Compound: CCn1c(-c2cccnc2[C@H](C)OC)c2c3cc(ccc31)-c1cnc(o1)C[C@H](NC(=O)OC(C)(C)C)C(=O)N1CCC[C@H](N1)C(=O)OCC(C)(C)C2
ring closure, yield of all isomers (from CCn1c(-c2cccnc2[C@H](C)OC)c(CC(C)(C)CO)c2cc(-c3cnc(C[C@H](NC(=O)OC(C)(C)C)C(=O)N4CCC[C@@H](C(=O)O)N4)o3)ccc21, ester bond, EDCI/HOBt, DIPEA, DCM, 13.7 mM, 0.0 °C, 2.0 h): 56.4%

Compound: CCn1c(-c2cccnc2[C@H](C)OC)c2c3cc(ccc31)N1CCC[C@@H](C[C@H](NC(=O)OCc3ccccc3)C(=O)N3CCC[C@H](N3)C(=O)OCC(C)(C)C2)C1
ring closure, yield of all isomers (from CCn1c(-c2cccnc2[C@H](C)OC)c(CC(C)(C)CO)c2cc(N3CCC[C@@H](C[C@H](NC(=O)OCc4ccccc4)C(=O)N4CCC[C@@H](C(=O)O)N4)C3)ccc21, ester bond, EDCI/HOBt/DIPEA, DCM, 36.7 mM, 25.0 °C, 6.0 h): 36%

Compound: CCn1c(-c2cccnc2[C@H](C)OC)c2c3cc(ccc31)N1CCO[C@@H](C[C@H](NC(=O)OCc3ccccc3)C(=O)N3CCC[C@H](N3)C(=O)OCC(C)(C)C2)C1
ring closure, yield of all isomers (from CCn1c(-c2cccnc2[C@H](C)OC)c(CC(C)(C)CO)c2cc(N3CCO[C@@H](C[C@H](NC(=O)OCc4ccccc4)C(=O)N4CCC[C@@H](C(=O)O)N4)C3)ccc21, ester bond, EDCI/HOBt/DIPEA, DCM, 12.75 mM, 25.0 °C, 16.0 h): 66%

Compound: CCn1c(-c2cccnc2[C@H](C)OC)c2c3nc(ccc31)-c1csc(n1)C[C@H](NC(=O)OC(C)(C)C)C(=O)N1CCC[C@H](N1)C(=O)OCC(C)(C)C2
ring closure, yield of all isomers (from CCn1c(-c2cccnc2[C@H](C)OC)c(CC(C)(C)CO)c2nc(-c3csc(C[C@H](NC(=O)OC(C)(C)C)C(=O)N4CCC[C@@H](C(=O)O)N4)n3)ccc21, ester bond, EDCI HCl/HOBt/DIPEA, DCM, 6.4 mM, 25.0 °C, 16.0 h): 43%

Compound: C=CC(=O)N1CCN(C(=O)N(C)[C@H](C(=O)N[C@H]2Cc3nc(cs3)-c3ccc4c(c3)c(c(-c3cccnc3[C@H](C)OC)n4CC(F)(F)F)CC(C)(C)COC(=O)[C@@H]3CCCN(N3)C2=O)C(C)C)CC1 [Compound A465]
IC50 [1, 2]: < 0.01 µM

IC50 [1, 3]: 0.1 to 1 µM
Compound: C=CC(=O)N1CC[C@H](C(=O)N(C)C(C(=O)N[C@H]2C[C@H]3CN(CCO3)c3ccc4c(c3)c(c(-c3cccnc3[C@H](C)OC)n4CC)CC(C)(C)COC(=O)[C@@H]3CCCN(N3)C2=O)C(C)C)C1 (stereo partly drawn) [Compound A507]

Compound: C=CC(=O)N1CC[C@H](C(=O)N(C)[C@H](C(=O)N[C@H]2Cc3cccc(c3)-c3ccc4c(c3)c(c(-c3cc(C5=CCN(C)CC5)cnc3[C@H](C)OC)n4CC)CC(C)(C)COC(=O)[C@@H]3CCCN(N3)C2=O)C(C)C)C1 [Compound A514]
IC50 [1, 2]: 0.1 to 1 µM

IC50 [1, 3]: < 0.01 µM
Compound: CO[C@@H](C)c1ncc(N2CCN(C)CC2)cc1-c1c2c3cc(ccc3n1CC(F)(F)F)-c1cccc(c1)C[C@H](NC(=O)[C@H](C(C)C)N(C)C(=O)C1(F)CCN(C(=O)C#CC(C)(C)N(C)C)CC1)C(=O)N1CCC[C@H](N1)C(=O)OCC(C)(C)C2 [Compound A542, 1-(4-(dimethylamino)-4-methylpent-2-ynoyl)-4-fluoro-N-((2S)-1-(((6^1S,4S)-1^2-(2-((S)-1-methoxyethyl)-5-(4-methylpiperazin-1-yl)pyridin-3-yl)-10,10-dimethyl-5,7-dioxo-1^1-(2,2,2-trifluoroethyl)-6^1,6^2,6^3,6^4,6^5,6^6-hexahydro-1^1H-8-oxa-1(5,3)-indola-6(1,3)-pyridazina-2(1,3)-benzenacycloundecaphane-4-yl)amino)-3-methyl-1-oxobutan-2-yl)-N-methylpiperidine-4-carboxamide]

Compound: CO[C@@H](COC1CN(C(=O)C#CC(C)(C)N(C)C)C1)C(=O)N[C@H]1Cc2cccc(c2)-c2ccc3c(c2)c(c(-c2cccnc2[C@H](C)OC)n3CC(F)(F)F)CC(C)(C)COC(=O)[C@@H]2CCCN(N2)C1=O [Compound A556]
IC50 [1, 4]: < 0.01 µM

Compound: C=CC(=O)N1CCOC2CCN(C(=O)N(C)C(C(=O)NC3Cc4nc(cs4)-c4ccc5c(c4)c(c(-c4cccnc4C(C)OC)n5CC)CC(C)(C)COC(=O)C4CCCN(N4)C3=O)C(C)C)CC21 (stereo not drawn) [Compound A596]
IC50 [1, 4]: < 0.01 µM

Compound: C=CC(=O)N1CC[C@H](C(=O)N(C)[C@H](C(=O)N[C@H]2Cc3cc(CF)cc(c3)-c3ccc4c(c3)c(c(-c3cccnc3[C@H](C)OC)n4CC(F)(F)F)CC(C)(C)COC(=O)[C@@H]3CCCN(N3)C2=O)C(C)C)C1 [Compound A659]
IC50 [1, 4]: < 0.01 µM

IC50 [1, 5]: 0.01 to 0.1 µM
Compound: CCn1c(-c2cccnc2C(C)OC)c2c3cc(ccc31)-c1cccc(c1)C[C@H](NC(=O)[C@H](C(C)C)N(C)C(=O)N1CCC13CN(C(=O)C#CC(C)(C)N(C)C)C3)C(=O)N1CCC[C@H](N1)C(=O)OCC(C)(C)C2 (stereo partly drawn) [Compound A717]

IC50 [1, 5]: 0.1 to 1 µM
Compound: C=CC(=O)N1CC[C@H](C(=O)N(C)[C@H](C(=O)N[C@H]2Cc3cc(O)cc(c3)-c3ccc4c(c3)c(c(-c3ccc(CN5CC[C@@H](O)C5)cc3)n4CC)CC(C)(C)COC(=O)[C@@H]3CCCN(N3)C2=O)C(C)C)C1 [Examples A1]

IC50 [1, 5]: 0.01 to 0.1 µM
Compound: C=CC(=O)N1CC[C@H](C(=O)N(C)[C@H](C(=O)N[C@H]2Cc3cc(O)cc(c3)-c3ccc4c(c3)c(c(-c3ccc(CN5CCCC5)cc3)n4CC)CC(C)(C)COC(=O)[C@@H]3CCCN(N3)C2=O)C(C)C)C1 [Examples A10]

IC50 [1, 5]: < 0.01 µM
Compound: (2R)-2-(((1-(4-(dimethylamino)-4-methylpent-2-ynoyl)azetidin-3-yl)oxy)methyl)-N-((6^3S,4S)-1^1-ethyl-1^2-(2-((S)-1-methoxyethyl)pyridin-3-yl)-10,10-dimethyl-5,7-dioxo-6^1,6^2,6^3,6^4,6^5,6^6-hexahydro-1^1H-8-oxa-1(5,3)-indola-6(1,3)-pyridazina-2(1,3)-benzenacycloundecaphane-4-yl)-3-methylbutanamide [Compound A316]

IC50 [1, 5]: < 0.01 µM and 0.01 to 0.1 µM
Compound: (2S)-N-[(7S,13S)-21-ethyl-20-[2-(methoxymethyl)pyridin-3-yl]-17,17-dimethyl-8,14-dioxo-15-oxa-4-thia-9,21,27,28-tetraazapentacyclo[17.5.2.1^2,^5.1^9,^13.0^22,^26]octacosa-1(25),2,5(28),19,22(26),23-hexaen-7-yl]-3-methyl-2-{N-methyl-1-[(3S)-1-(prop-2-enoyl)pyrrolidin-3-yl]formamido}butanamide [Compound A194]

IC50 [1, 5]: 0.01 to 0.1 µM
Compound: (2S)-N-[(8S,14S,20P)-22-ethyl-21-{4-[(1S)-1-methoxyethyl]pyridin-3-yl}-18,18-dimethyl-9,15-dioxo-16-oxa-10,22,28-triazapentacyclo[18.5.2.1^2,^6.1^10,^14.0^23,^27]nonacosa-1(26),2,4,6(29),20,23(27),24-heptaen-8-yl]-3-methyl-2-{N-methyl-1-[(3S)-1-(prop-2-enoyl)pyrrolidin-3-yl]formamido}butanamide [Compound A115]
